Laboratory results published in US9185910B2, “Amide compound” (Sumitomo Chemical Company, Limited, priority 2012, dated 2015).

Legend:
Musca domestica = assay: Test Example 8: filter paper with sucrose bait, Musca domestica; type: in vivo; conditions: 500 ppm, 0.7 ml on filter paper, female imagoes, after 24 hours
Procedure: The formulations of Compounds of Present Invention 31, 41, 55, 62, 64 to 65, 67 to 70, 73 to 75, 88, 119, 124 and 131 as obtained in Formulation Example 5 were diluted with water, so as to have a concentration of the active ingredient of 500 ppm, to prepare a test drug solution.
A filter paper having a diameter of 5.5 cm was spread on the bottom of a polyethylene cup having the same diameter and 0.7 ml of the test drug solution was added dropwise onto the filter paper, and 30 mg of sucrose was uniformly placed as bait. Into the polyethylene cup, 10 female imagoes of Musca domestica were released, and the cup was sealed with a lid. After 24 hours, the life and death of Musca domestica was examined, and the death rate was calculated. Death rate (%)=(Number of dead insects/Number of tested insects)×100

[1] = system: Haemaphysalis longicornis; assay: Test Example 11: coated screw tube contact test, Haemaphysalis longicornis ticks; type: in vivo; conditions: 2 mg compound coated on inner wall of screw tube, non-blood-sucking nymphal ticks, after 2 days
Procedure: 2 mg of each of Compounds of Present Invention 7, 20, 25, 28, 48, 55, 65 and 110 was weighed in a screw tube (Maruemu No. 5; 27×55 mm), and 0.2 mL of acetone was added thereto and sealed with a cap to dissolve the compound. The screw tube was rotated and inverted to uniformity coat the drug solution onto the whole inner wall of the tube. After removing the cap, the solution was air-dried for about 2 hours, then non-blood-sucking nymphal ticks, Haemaphysalis longicornis (5 ticks/group) were released, and the tube was sealed with the cap. After 2 days, the number of dead ticks was examined, and the death rate was calculated according to the following equation: Death rate (%)=100×(Number of dead ticks/Number of tested ticks).

Row | SMILES | Death rate (%) (Musca domestica) | Death rate (%) [1] [%]
1 | CCS(=O)(=O)c1cc(NC(=O)OC)cnc1C(=O)N(C)c1ccc(SC(F)(F)F)cc1 [compound 119] | 100 | 
2 | CCSc1cc(Cl)cnc1C(=O)N(C)c1ccc(C(F)(F)F)cc1 [compound 131] | 100 | 
3 | CCSc1cccnc1C(=O)Nc1ccc(C(F)(F)F)nc1 [compound 20] |  | 100
4 | CCSc1cccnc1C(=O)N(C)c1ccc(C(F)(F)C(F)(F)F)c(Cl)n1 [compound 110] |  | 100
5 | CCSc1cccnc1C(=O)N(C)c1ccc(I)cn1 [compound 70] | 100 | 
